Test results as given in US20240116889A1, “ANTIVIRAL COMPOUNDS AND METHODS” (priority 2019, published 2024).
Read-outs that look alike come from different tables or passages of the source.

Experiments:
USSR H1N1 virus [1] = type: cell-based, influenza A virus (A/USSR/77)
USSR H1N1 virus [2] = type: cell-based, influenza A virus (A/USSR/77); remark: listed apart in the source
USSR H1N1 virus [3] = type: cell-based, influenza A virus (A/USSR/77); conditions: PTECs; 0.1 μM TG for 30 min
HEp2 cells = experiment: Cell viability of HEp2 cells (CellTiter-Glo); type: cell-based, human; conditions: HEp-2 cells
Experimental: Spun supernatants were collected to infect HEp2 cells for 24 h for immuno-detection of RSV. TG doses used to prime HEp2 cells were non-toxic. 30 min TG treated cells were rinsed, cultured overnight and subjected to cell viability assays (CellTiter-Glo® Luminescent Cell Viability Assay kit, Promega. Results are shown in FIG. 22.

DDIT3, HSPA5 and HSP90B1 = type: cell-based, pig; conditions: NPTr cells, porcine myoblasts and NHBE cells; non-toxic TG, 30 min
[4] = tested on: PR8 H1N1 virus (A/Puerto Rico/8/1934); type: in vivo, BALB/c mice
hCoV OC43 [5] = experiment: hCoV OC43 production in NHBE cells (RT-qPCR); type: cell-based, human coronavirus OC43; conditions: 30 min pre-infection priming, 48 and 72 hpi
Experimental: Cells were primed with TG as indicated for 30 min, washed twice with PBS and infected with hCoV OC43 at 0.01 MOI (based on FFAs) for 3 h; after which cells were again washed twice with PBS and incubated in serum-free Promocell media (supplemented with 0.1 μg/ml TPCK trypsin). Culture media were harvested at 48 and 72 hpi for viral RNA extraction followed by one-step reverse transcription qPCR to detect the relative copy number of OC43 replicase polyprotein lab RNA. Indicated significance using Tukey's multiple comparisons test and percentage viral RNA reduction relative to corresponding DMSO control.

SARS-CoV-2 [6] = experiment: SARS-CoV-2 replication in NHBE cells (RT-qPCR of media); type: cell-based
SARS-CoV-2 [7] = experiment: SARS-CoV-2 replication in Vero E6 cells (RT-qPCR of media); type: cell-based
hCoV OC43 [8] = experiment: hCoV OC43 replication in A549 cells (RT-qPCR); type: cell-based, human coronavirus OC43
USSR H1N1 virus [9] = experiment: USSR H1N1 replication in A549 cells (M-gene RNA, RT-qPCR); type: cell-based, influenza A virus (A/USSR/77)
A549 cells = experiment: Cell viability of A549 cells (CellTiter-Glo 2.0); type: cell-based, human; conditions: RDV continuous, TG 30 min, overnight
Experimental: (A) A549 cells were primed with indicated TG, 0.3 μM RDV or DMSO control for 30 min, washed twice with PBS and infected with 0.01 MOI of CoV OC43 for 2 h, after which cells were washed again with PBS and incubated in fresh infection media (OptiMEM supplemented with 0.1 μg/ml TPCK-trypsin for TG primed cells, or fresh media in the continuous presence of RDV. At 24, 48 and 72 hpi, viral RNA extraction was performed on collected supernatants followed by one-step reverse transcription qPCR to detect the relative copy number of hCoV OC43 replicase polyprotein lab RNA, based on relative Ct method. Indicated significance relative to corresponding RDV-treated cells based on 2-way ANOVA Tukey's multiple comparisons test. (B) As in (A), A549 cells were primed continuously with RDV, or for 30 min with indicated TG or DMSO, washed, cultured overnight and subjected to cell viability assay (CellTiter-Glo 2.0 Cell Viability Assay, Promega).

RSV [10] = experiment: RSV replication in A549 cells (pfu/ml by immunostaining); type: cell-based, human respiratory syncytial virus; conditions: 30 min TG priming, 72 h infection
Experimental: FIG. 37—Pre- and post-infection priming with TG 24 h inhibited RSV replication. […] (A) In pre-infection, cells primed with TG or control DMSO, washed with PBS, cultured in fresh media for 24 h and infected with RSV at 0.1 MOI for 2 h followed by media replacement with fresh DMEM containing 2% FCS. (B) In post-infection, cells were first infected similarly for 24 h, then primed with TG or DMSO for 30 min, washed with PBS and replaced with fresh media. In both treatment groups (A and B), cells were infected for a total period of 72 h, after which spun supernatants were used to determine progeny virus output (pfu/ml) on HEp2 cells by immunostaining with mouse anti-RSV (F27) antibody. HEp2 cells were more permissive to RSV replication than A549 cells. (C) Comparison of TG and ribavirin (Riba) in the inhibition of RSV replication. HEp-2 cells were primed with TG, Riba or control DMSO as indicated for 30 min, rinsed with PBS and infected with RSV. Riba was continuously present during infection. Four days post-infection, media were sampled for the detection of viral M-gene RNA by one-step reverse transcription-qPCR. Unless otherwise indicated, significance (based on one-way ANOVA with Tukey's multiple comparison test) is relative to DMSO control.

[11] = tested on: 2009 pandemic (pdm) H1N1 virus; experiment: 2009 pandemic (pdm) H1N1 virus replication in Calu-3 cells (M-gene RNA, RT-qPCR); type: cell-based, influenza A virus
USSR H1N1 virus [12] = experiment: USSR H1N1 M-gene RNA in media of NPTr cells primed with stored or oil-mixed TG (RT-qPCR); type: cell-based, influenza A virus (A/USSR/77); conditions: NPTr cells primed at 0.5 μM TG
influenza A virus = conditions: MDCK cells; 0.001 μM TG over 48 h of infection; cited from earlier work
RSV [13] = conditions: human bronchial epithelial cell line; TG 0.1 uM for 24 h before infection; cited from earlier work
[14] = Tolerability of TG given to mice by oral gavage; conditions: 1 mg/kg

C/C=C(/C)C(=O)O[C@H]1C(C)=C2[C@H]([C@@H]1OC(=O)CCCCCCC)[C@@](C)(OC(C)=O)C[C@H](OC(=O)CCC)[C@@]1(O)[C@H]2OC(=O)[C@@]1(C)O [TG, thapsigargin]
progeny virus output vs DMSO control (USSR H1N1 virus [1]): marked reduction in virus output
progeny virus output (USSR H1N1 virus [1]; NHBE cells, 5 nM TG for 30 min): dramatic reduction in progeny virus output
virus production, TG before vs 6 h after infection (USSR H1N1 virus [1]; NHBE cells, 0.01 μM TG 30 min, […]): comparable reduction in virus production
Selectivity index (CC50/IC50) (USSR H1N1 virus [1]; NHBE cells, 30 min priming, […]): 8572.89
IC50 (USSR H1N1 virus [1]; NHBE cells, 30 min priming, […], read-out: USSR virus inhibitory concentration IC50): 0.00391 µM
progeny virus output vs DMSO control (USSR H1N1 virus [2]): marked reduction in virus output
virus production, TG before vs 6 h after infection (USSR H1N1 virus [2]; myoblasts, 0.5 μM TG 30 min, […]): comparable reduction in virus production
duration of the antiviral state after TG exposure (USSR H1N1 virus [2]; myoblasts, 1.0 μM TG for 1 h): at least 24 h
duration of the antiviral state after TG exposure (USSR H1N1 virus [3]): at least 24 h
CC50 (HEp2 cells): 90 µM
expression of ER stress associated genes (DDIT3, HSPA5 and HSP90B1): consistently elevated ER stress associated genes
body weight of surviving treated mice ([4]; TG 30 ng by gavage daily): progressive weight gain from 9 dpi
PR8 virus loads in lungs vs control mice ([4]; TG 30 ng by gavage daily, […]): significantly lower
gross lung pathology ([4]; TG 30 ng by gavage daily, […]): more localised to the vicinity of virus entry site
survival of infected mice ([4]; mouse, in vivo): 40%
hCoV OC43 production (hCoV OC43 [5]): reduced hCoV OC43 production in a dose-dependent manner
SARS-CoV-2 replication (SARS-CoV-2 [6]): highly inhibitory
SARS-CoV-2 replication (SARS-CoV-2 [7]): lack of effectiveness
hCoV OC43, separate infection and co-infection with USSR H1N1 (hCoV OC43 [8]): blocked
blocking of hCoV OC43 replication, comparison with RDV (hCoV OC43 [8]; A549 cells, TG 30 min priming vs continuous RDV, […]): superior to remdesivir (RDV)
USSR H1N1, separate infection and co-infection with hCoV OC43 (USSR H1N1 virus [9]): blocked
blocking of USSR H1N1 replication, comparison with RDV (USSR H1N1 virus [9]; A549 cells, TG 30 min priming vs continuous RDV): superior to remdesivir (RDV)
cell viability (A549 cells): no adverse effect on cell viability
RSV replication, priming 24 h before or 24 h post-infection (RSV [10]): strongly inhibited RSV replication
pdm 2009 H1N1, separate infection and co-infection with SARS-CoV-2 [11]: blocked
antiviral function after mixing TG-DMSO stock with olive oil or sesame oil (USSR H1N1 virus [12]; 1:1 volume ratio, 24 h at room temperature): did not diminish TG antiviral function
antiviral activity after incubation of TG stock solution on its own (USSR H1N1 virus [12]; 24 h at RT, relative to freshly thawed TG): some reduction in antiviral activity
cell viability after priming (NPTr cells; 30 min priming at doses used for infection studies): no cytotoxic effect on cell viability
CC50 (NPTr cells; 30 min priming, viability after 24 h): 56.6 µM
cell viability of primed cells, infected or uninfected (NPTr cells; primed once with 0.5 μM TG for 30 min, over 20 h): more viable than DMSO control cells
progeny influenza virus output (influenza A virus): increase progeny influenza virus output
RSV replication by RT-PCR (RSV [13]): did not show reduction in virus replication
clinical adverse effects [14]: no detectable clinical adverse effects
